The record followed here is PMC8179358, “An explicitly designed paratope of amyloid-β prevents neuronal apoptosis in vitro and hippocampal damage in rat brain” (Chemical Science, 2020).

*1 amine or outer side, *2 acyl side, *3 side chain or, on linkers, in order; H or OH if unused. Where a SMILES comes first, the peptide text is derived from it. Bridges are numbered along the chain shown (N, C = ends). Roman numbers before positions name the chains, in order. [ ]: non-standard residue; d: D form. X1 = O=C(CCCCC(=O)[*:2])NCCCOCCOCCOCCCNC(=O)CCC(=O)[*:1]; NMeF = CN[C@@H](Cc1ccccc1)C(=O)O; NMeL = CN[C@@H](CC(C)C)C(=O)O; NMeV = CN[C@H](C(=O)O)C(C)C

Test [1] concerns the target T1, Aβ40 (Homo sapiens, UniProt P05067).
T1 construct: 15N labeled (a) Aβ40 (80 μM)
The test can be described thus: NMR titration with SVD, residue-specific KD. Particulars: residues R5, L17, V24, K28, and G29 of Aβ40, read-out: dissociation constant (KD). Type of test: binding.

Test [2] has as its system SH-SY5Y cells. The test can be described thus: MTT assay, Aβ40 induced cytotoxicity. Format: cell-based, human. Particulars: Aβ40 10 μM, 24 h. On the procedure:
1.3. Methods for in vitro cell-based experiments
The human neuroblastoma cell line SH-SY5Y was obtained from the National Centre for Cell Science (NCCS, Pune, India). The cells were grown in DMEM, and Ham’s F12 nutrient mixture (DMEM/F12; 1:1) supplemented with 10% fetal bovine serum (FBS; Gibco, USA), 50 U/ml penicillin, 100 μg/ml streptomycin and incubated in a humidified atmosphere of 5% CO2 at 37°C. All experiments were carried […]
Each experiment was performed
Methylthiazol tetrazolium (MTT) reduction assay was used to measure the viability of cells.10 The SH-SY5Y cells were seeded at a density of 1.5 × 10^4 cells/well in a 96 well plate. To assess self-toxicity, cells […]
period 20µl of MTT reagent (5mg/ml in DPBS) was added to each well and incubated in a humidified atmosphere of 5% CO2 at 37°C for 4h. Formazan crystals (purple) are formed by the metabolically active cells by cleaving the yellow tetrazolium salt. After the incubation period, the MTT solution was aspirated, and 150µL of dimethyl sulfoxide (DMSO) was added to each well to dissolve the formazan precipitate.

Test [3] concerns SH-SY5Y cells. Nature of the test: Hoechst 33258 staining of apoptotic cells. Particulars: Aβ40 10 μM, 24 h. Type of test: cell-based, human. An excerpt: Condensed or fragmented nuclear bodies characterize the distinctive nature of apoptotic cells. […] Dyshomeostasis of Ca^2+ is also responsible for the increased production of Aβ peptides, by which a degenerative feed-forward cycle is activated, resulting in accelerated apoptosis, synaptic dysfunction, and memory impairment.[49]

For test [4], the system named is Bax, Bcl-2. The test can be described thus: Western blot, Bax and Bcl-2. Type of test: cell-based, human. Conditions: Aβ40 alone (10 μM), compared to healthy cells. As for the experimental part:
e. Measurement of intracellular calcium (Ca 2+)
Ca2+sensitive dye Fura-2AM was used to measure free intracellular Ca2+level in SH-SY5Y cell suspension by the previously described method.12 Following treatment with the respective drug, Fura-2 AM (Cayman, USA) at a concentration of 5 µM was added to the culture medium and incubated at 37°C for 45 min. Next, Krebs-Ringer-HEPES (KRH) buffer (135mM NaCl, 5mM KCl, 1mM MgSO4, 0.4mM KH2PO4, 1mM CaCl2, 5.5mM glucose, 20mM HEPES, pH 7.4) was used to wash each plate twice containing (1×10^6cells). Fluorescent microplate reader (FLX 800, Biotek, USA) was used to measure the fluorescence intensity with an excitation and emission spectra of […], respectively. Results are Mean±SEM of quadruplicate measurements from three separate experiments and expressed in the increase in percent relative fluorescent unit (RFU) relative to the baseline reading.
Western blot analysis was performed to measure Bax, Bcl-2, cleaved Caspase 9 and cleaved Caspase 3, pro and anti-apoptotic proteins expression. About 5× 10^6 cells were washed with PBS twice following […]
overnight. […] The optical density (OD) value of each band was analyzed by the electrophoresis image analysis system (Smartview 2001, S/N: SV-0002202, Japan) and normalized against the corresponding β-actin band. […]
On the technique in general: Immunoblotting shows a protein as a band on a membrane.

The term Kd denotes the concentration at which binding is half-saturated.

Turning to `CC(C)C[C@H](NC(=O)CNC(=O)CCC(=O)NCCCOCCOCCOCCCNC(=O)CCCCC(=O)NCC(=O)N(C)[C@@H](CC(C)C)C(=O)N[C@H](C(=O)N(C)[C@@H](Cc1ccccc1)C(=O)N[C@@H](Cc1ccccc1)C(=O)N[C@@H](C)C(N)=O)C(C)C)C(=O)N(C)[C@H](C(=O)N[C@@H](Cc1ccccc1)C(=O)N(C)[C@@H](Cc1ccccc1)C(=O)N[C@@H](C)C(N)=O)C(C)C` [SP1] (I: GL[NMeV]F[NMeF]A-NH2 / II: G[NMeL]V[NMeF]FA-NH2; linker I:N-II:N via X1), the Kd in test [1] was roughly 200 µM.
Take “Aβ40: commercially available Aβ40 peptide”: the “cell population after Aβ40 alone” value in test [2] is “significant reduction in the cell population”. Further, in test [3], the “apoptotic cells, Aβ40 alone” value is given as “A significant number of apoptotic cells were observed”. For the same molecule, in test [4], the “ratio of Bax/Bcl-2 expression” value is reported as roughly 3.2 fold.
